# Assays:
# [1] = tested on: Zucker diabetic fatty (ZDF) rat; experiment: Fasting blood glucose, plasma insulin, C-peptide and HOMA-IR in ZDF rats (Example 3); assay type: in vivo; settings: for increase of plasma C-peptide levels / increase of plasma insulin levels: vs vehicle ZDF; for increase of plasma C-peptide levels: NS; for increase of plasma insulin levels: ns
# Method: For the groups treated with AB14, the antibody was administered once weekly via the caudal vein (i.v., 5 mL/kg) on days 1, 8, 15, and 22 at two different doses 20 mg/kg/week (groups 3 and 7) or 60 mg/kg/week (groups 4 and 8). All other groups were treated once weekly with vehicle 1 (i.v., 5 mL/kg). The intravenous treatments were performed in the morning on day 1, 8, 15, and 22 while under isoflurane anaesthesia. The volume of administration was individually adapted according to the most recent body weight.
# All other groups were treated daily with vehicle 2 (p.o., 5 mL/kg) for 28 days. The most recent body weight was used to calculate the average volume of administration in each group.
# A fasting (6 hours on day 0 from 8:00 am to 02:00 pm, and overnight on day 12, 19 and 26 from ˜6:00 pm to ˜8:00 am) was performed before each blood collection. Blood was collected at ˜2:00 pm, from the tip of the tail, on day 0 (before screening, 150 μL, potassium EDTA), and at ˜8:00 am prior to dosing on days 12 (110 μL, potassium EDTA), 19 (150 μL, potassium EDTA) and 26, (110 μL, potassium EDTA).
# Fasting blood glucose (glucometers) was measured on days 0, 12, 19, and 26. Fasting plasma insulin, peptide-C (ELISA method), free fatty acids, triglycerides, total cholesterol (colorimetric method), and HDL-cholesterol (phosphotungstate precipitation, colorimetric method) were measured on day 0, and prior to dosing on days 12, 19, and day 26. Non HDL-cholesterol was calculated as total cholesterol—HDL-cholesterol. Fructosamine was measured on days 0, 19 and 28. HbA1c (DCA 2000) was measured on days 0 and 28.
# HFD rats = experiment: Body weight and food intake in high fat/high fructose diet (HFD) rats (Example 2); assay type: in vivo, rat; settings: vs HFD vehicle
# Method: After 6 weeks of HFD rats were randomized to treatment groups according to their glucose intolerance (AUC calculation during an oral glucose tolerance test (OGTT)) and their HOMA-IR (insulin resistance index).
# Body weight and food consumption were measured 3 times per week until 10 days of treatment. HOMA-IR was measured on day 10 and 15. A 2-step clamp (5 mU/kg/min and then 15 mU/kg/min insulin) was performed on day 15 or 16. Glucose Turnover (GTO) was assessed using ^3H-glucose tracer infusion during the clamp procedure.
# Ab14 (10, 30, 100 mg/kg) and the vehicle were weekly administered via i.v. route (via the caudal vein, under isoflurane anaesthesia), in the morning, on day 1 and day 8 of treatment.
# Body weight was measured once a week during the first six week of HFD. Body weight was measured 3 times per week during the first 10 days of treatment. Food consumption was measured over 48 h or 72 h, just before treatment and 3 times per week during treatment until surgery procedure (day 11).
# [2] = tested on: Zucker diabetic fatty (ZDF) rat; settings: ZDF rats
# Method: Each pancreas was divided into 2 parts (longitudinal cut). One piece was fixed in 10% formalin solution for histopathological processing. The other piece of pancreas was flash frozen and kept at −80° C. for determination of insulin and proinsulin levels.
# Each pancreas sample was fixed in 4% formalin during 24-48 hours maximum; the volume of formalin was 5-10 times higher than the sample volume to assure appropriate fixation. After 48 h, the samples were placed in 70% ethanol.
# [3] = tested on: Zucker diabetic fatty (ZDF) rat; experiment: Oral glucose tolerance test on day 26 in ZDF rats (Example 3); assay type: in vivo
# Method: The oral glucose tolerance test (OGTT) was performed as follows. On day 25, rats were fasted at ˜6:00 pm and an oral glucose tolerance test was performed the day after (on day 26). At ˜8:00 am (T-60) a blood collection (110 μL, EDTA) was performed for biochemical parameters measurements. One hour after (˜09:00 am), an oral glucose bolus (1.5 g/kg) was administered (T0). Blood glucose was measured (glucometer or colorimetric method in case of high glycaemia) on T-60, T0, T15, T30, T60, T90, T120, and T180 minutes. Area under the curve (AUC) was calculated based on the blood glucose values measured at T0. Plasma insulin and C-peptide were measured (ELISA method) on T-60, T15 (·40 μL of blood, EDTA), and T30 minutes (·40 μL of blood, EDTA).
# [4] = day 12, metformin 200 mg/kg/day
# [5] = day 19, metformin 200 mg/kg/day
# [6] = day 26, metformin 200 mg/kg/day
# [7] = Ab14 10, 30, 100 mg/kg/week i.v., metformin 200 mg/kg/day
# [8] = Ab14 60 mg/kg/wk., Met. 200 mg/kg/day
smiles,measurement,setting,value
"CN(C)C(=N)N=C(N)N [metformin, reference compound]",increase of plasma C-peptide levels,[1]; [4],23%
same,increase of plasma insulin levels,[1]; [4],79%
same,increase of plasma C-peptide levels,[1]; [5],21%
same,increase of plasma insulin levels,[1]; [5],55%
same,"fasting blood glucose, effect","[1]; day 19 and 26, metformin 200 mg/kg",not observed
same,increase of plasma C-peptide levels,[1]; [6],9%
same,increase of plasma insulin levels,[1]; [6],48%
same,HOMA-IR,"[1]; days 12, 19 and 26, metformin 200 mg/kg/day alone or in combination with AB14, vs vehicle ZDF",increase of HOMA-IR
same,body weight,"HFD rats; 10 days of treatment, Ab14 10, 30, 100 mg/kg/week i.v., metformin 200 mg/kg/day",significantly decreased
same,body weight gain,"HFD rats; Ab14 30 mg/kg, metformin 200 mg/kg",significantly decreased
same,decrease of cumulative food consumption,HFD rats; [7],25%
same,food consumption (follow-up food intake),HFD rats; [7],significantly decreased
same,vacuolization and islet fibrosis severity,"[2]; AB14 60 mg/kg, metformin, or combined, vs vehicle ZDF",trend towards a decrease
same,"Arteries, medial/intimal hypertrophy, severity 0, incidence",[2]; [8],9
same,"Arteries, medial/intimal hypertrophy, severity 1, incidence",[2]; [8],1
same,"Brown pigment-laden, severity 1, incidence",[2]; [8],7
same,"Brown pigment-laden, severity 2, incidence",[2]; [8],3
same,"Eosinophilic granulocyte infiltration, severity 0, incidence",[2]; [8],10
same,"Exocrine cell vacuolation, severity 0, incidence",[2]; [8],10
same,"Fat tissue: Fat tissue necrosis, group mean score",[2]; [8],0
same,"Interstitial fibroplasia/fibrosis, severity 0, incidence",[2]; [8],9
same,"Interstitial fibroplasia/fibrosis, severity 1, incidence",[2]; [8],1
same,"Interstitial hemorrhage, severity 0, incidence",[2]; [8],4
same,"Interstitial hemorrhage, severity 1, incidence",[2]; [8],6
same,"Islet Cell Vacuolation, severity 0, incidence",[2]; [8],1
same,"Islet Cell Vacuolation, severity 1, incidence",[2]; [8],4
same,"Islet Cell Vacuolation, severity 2, incidence",[2]; [8],5
same,"Islet Fibrosis, severity 1, incidence",[2]; [8],3
same,"Islet Fibrosis, severity 2, incidence",[2]; [8],7
same,"Islet cell anisocytosis/anisokaryosis, severity 0, incidence",[2]; [8],2
same,"Islet cell anisocytosis/anisokaryosis, severity 1, incidence",[2]; [8],8
same,"Islet cell mitosis, severity 0, incidence",[2]; [8],5
same,"Islet cell mitosis, severity 1, incidence",[2]; [8],5
same,"Islet cell single cell necrosis, severity 0, incidence",[2]; [8],7
same,"Islet cell single cell necrosis, severity 1, incidence",[2]; [8],3
same,"Islet granulocytic infiltration, severity 0, incidence",[2]; [8],6
same,"Islet granulocytic infiltration, severity 1, incidence",[2]; [8],4
same,"Islet hemorrhage, severity 0, incidence",[2]; [8],8
same,"Islet hemorrhage, severity 1, incidence",[2]; [8],2
same,"Large/Giant Islets, severity 0, incidence",[2]; [8],1
same,"Large/Giant Islets, severity 1, incidence",[2]; [8],1
same,"Large/Giant Islets, severity 2, incidence",[2]; [8],3
same,"Large/Giant Islets, severity 3, incidence",[2]; [8],5
same,"Lymph node: Brown pigment-laden macrophages, group mean score",[2]; [8],0
same,"Lymph node: Eosinophilic granulocyte infiltration, group mean score",[2]; [8],0.5
same,"Lymph node: Erythrophagocytosis—sinusoidal, group mean score",[2]; [8],0
same,"Lymph node: Pink protein rich sinusoidal lymph, group mean score",[2]; [8],0
same,"Lymph node: Sinusoidal hemorrhage, group mean score",[2]; [8],0
same,"Lymph node: Sinusoidal mast cells, group mean score",[2]; [8],0
same,"Mononuclear cell infiltration, severity 1, incidence",[2]; [8],10
same,"Pancreas: Arteries, medial/intimal hypertrophy, group mean score",[2]; [8],0
same,"Pancreas: Brown pigment-laden macrophages, group mean score",[2]; [8],1
same,"Pancreas: Eosinophilic granulocyte infiltration, group mean score",[2]; [8],0
same,"Pancreas: Exocrine cell vacuolation, group mean score",[2]; [8],0
same,"Pancreas: Interstitial fibroplasia/fibrosis, group mean score",[2]; [8],0
same,"Pancreas: Interstitial hemorrhage, group mean score",[2]; [8],1
same,"Pancreas: Islet cell anisocytosis/anisokaryosis, group mean score",[2]; [8],1
same,"Pancreas: Islet cell mitosis, group mean score",[2]; [8],0.5
same,"Pancreas: Islet cell single cell necrosis, group mean score",[2]; [8],0
same,"Pancreas: Islet cell vacuolation, group mean score",[2]; [8],1.5
same,"Pancreas: Islet fibrosis, group mean score",[2]; [8],2
same,"Pancreas: Islet granulocytic infiltration, group mean score",[2]; [8],0
same,"Pancreas: Islet hemorrhage, group mean score",[2]; [8],0
same,"Pancreas: Large/giant islet(s), group mean score",[2]; [8],2.5
same,"Pancreas: Mononuclear cell infiltration, group mean score",[2]; [8],1
same,"Pancreas: Pancreatic ductule hyperplasia, group mean score",[2]; [8],0.5
same,"Pancreatic ductule hyperplasia, severity 0, incidence",[2]; [8],5
same,"Pancreatic ductule hyperplasia, severity 1, incidence",[2]; [8],5
same,plasma insulin and C-peptide levels 15 and 30 minutes after the glucose load,"[3]; day 26, metformin 200 mg/kg/day, pioglitazone 10 mg/kg/day, vs vehicle",slightly increased
same,reduction in blood glucose AUC (OGTT),"[3]; day 26, pioglitazone 10 mg/kg/day, metformin 200 mg/kg/day, vs vehicle ZDF",6%

# Reference: patent publication US12122821B2, “Regulation of glucose metabolism using anti-CGRP antibodies” (H. LUNDBECK A/S, priority 2013, dated 2024)
